# Literature values, collected in patent US20220400668A1, “MICROEMULSION COMPOSITIONS OF TOPRAMEZONE” (BASF SE, priority 2018, published 2022).
# Conditions: 25° C.
smiles,measurement,value
"Cc1c(C(=O)c2cnn(C)c2O)ccc(S(C)(=O)=O)c1C1=NOCC1 [topramezone, 4-[3-(4,5-dihydro-1,2-oxazol-3-yl)-2-methyl-4-methylsulfonylbenzoyl]-2-methyl-1H-pyrazol-3-one]",solubility in water,about 0.305 g/L
